{"source": "patent US10602758B2", "about": "“Methods and compositions for improved taste quality” (Almendra Pte. Ltd, priority 2018, dated 2020)", "key": {"[1]": {"settings": "cited from earlier work; for sweetness potency (sensory evaluations): more potent than sucrose, Crammer and Ikan 1986; for sweetness potency: relative to sucrose"}, "[2]": {"settings": "cited from earlier work; for Kd, apparent Sweetener/Receptor dissociation constant / Rm, Maximal Response: from R = Rm x C/(kd + C)"}, "human taste testers [3]": {"system": "human taste testers", "assay": "Sensory flavor profile analysis, Example 3.1: KCl, MgCl2 or CaCl2 individually at <12 mM with REBA in Citric Acid Buffer (Table 7)", "assay_type": "in vivo", "settings": "used individually at <12 mM", "procedure": "(§1) Representative formulations within the scope of the disclosed formulations were prepared and subjected to sensory testing by the methods described above in the section entitled Testing Methodology, where formulations are rated on a 0-15 scales for the Taste Attributes: Sweetness Intensity (SI), Saltiness Intensity (SaI), Sourness Intensity (SoI), Bitterness Intensity (BI), Astringency Intensity (AI), Body/Mouthfeel Intensity (B/MF) and Sweetness Linger (SL). And, in addition, formulations are rated for the additional Taste Attributes of Sweetness Appearance Time (AT) and Sweetness Desensitization (SD). AT was rated by the verbal descriptors Rapid (R), Delay (D) or SD (Significant Delay) and SD was rated by the verbal descriptors None (N), Slight (S) or Medium (M). In sensory test sessions, the number of samples evaluated was limited to 6. In the initial phase of formulation screening, testing was carried out in triplicate with a single subject extensively experienced in the technique of flavor profile analysis. Following formulation screening, testing on promising formulations was carried out with a trained panel as described above. […]\nThis study assessed the effect of K^+, Mg^2+, and Ca^2+ (from KCl, MgCl2, and CaCl2 salts) used individually in a disclosed Taste Modulator Composition on the Appearance Time (AT), Sweetness Linger (SL), Body/Mouthfeel (B/MF) and Sweetness Desensitization (SD) of REBA in Citric Acid Buffer at moderate concentrations (i.e., <12 mM)."}, "human taste testers [4]": {"system": "human taste testers", "assay": "Sensory flavor profile analysis, Example 3.2: KCl, MgCl2 or CaCl2 individually at 20 mM with REBA in Citric Acid Buffer (Table 8)", "assay_type": "in vivo", "settings": "used individually at 20 mM", "procedure": "as §1\nThis study assessed the effect of K^+, Mg^2+, and Ca^2+ (from KCl, MgCl2, and CaCl2 salts) used individually at 20 mM in a disclosed Taste Modulator Composition on the Appearance Time (AT), Sweetness Linger (SL), Body/Mouthfeel (B/MF) and Sweetness Desensitization (SD) of REBA in Citric Acid Buffer."}, "human taste testers [5]": {"system": "human taste testers", "assay": "Sensory flavor profile analysis, Example 3.3: KCl, MgCl2 or CaCl2 individually at 30 mM with REBA in Citric Acid Buffer (Table 9)", "assay_type": "in vivo", "settings": "used individually at 30 mM", "procedure": "as §1\nThis study assessed the effect of K^+, Mg^2+, and Ca^2+ (from KCl, MgCl2, and CaCl2 salts) used individually at 30 mM in a disclosed Taste Modulator Composition on the Appearance Time (AT), Sweetness Linger (SL), Body/Mouthfeel (B/MF) and Sweetness Desensitization (SD) of REBA in Citric Acid Buffer."}, "[6]": {"assay": "Dissolution of solid REBD in CAB-K buffer, visual inspection", "assay_type": "physicochemical", "settings": "500 PPM in pH 3.1 CAB-K; after standing overnight (about 20 h)"}, "[7]": {"assay": "Concentration/Response (C/R) function of sweeteners", "assay_type": "in vivo", "text": "In discussion of mid-calorie beverages, it is useful to describe a suitable methodology for definition of the compositions of such caloric/non-caloric sweetener blends. One such system is a previously described Concentration/Response (C/R) function useful for many caloric as well as non-caloric sweeteners (see G. E. DuBois, et al., “A Systematic Study of Concentration-Response Relationships of Sweeteners”, In Sweeteners: Discovery, Molecular Design and Chemoreception, D E Walters, F Orthoefer and G E DuBois, Eds., ACS Symposium Series 450, ACS Books, Washington, D.C., 1990).\nThe following example serves to show how the C/R function can be utilized in design of a mid-caloric beverage. Assume that the objective is to formulate a 50% calorie-reduced beverage with a blend of sucrose and REBA, where the original full-calorie beverage contained 10.0% sucrose. Assuming there is no synergy between sucrose and REBA, such a blend would require 5.0% sucrose and a concentration of REBA equivalent to 5.0% sucrose in sweetness. The requisite concentration (C) of REBA is easily calculated from its C/R function R=10C/(200+C) as follows: 5.0=10×C/(200+C); and C=200 mg/L."}, "human taste testers [8]": {"system": "human taste testers", "assay": "Sensory Testing Methodology: Sweetness Linger of reference standards in water", "assay_type": "in vivo", "settings": "10% Sucrose and 500 PPM REBA, perceived sweetness intensity @ 120 sec", "text": "In various aspects, the present disclosure pertains to methods of testing the disclosed sweetener compositions, e.g., a sensory methodology or method for sweetener evaluation. In a particular aspect, the sensory methodology used is known as a “Flavor Profile Analysis” as has been previously described (see: B. T. Carr, S. D. Pecore, K. M. Gibes and G. E. DuBois, “Sensory Methods for Sweetener Evaluation”, Chapter 11 In Flavor Measurement, C. T. Ho and C. H. Manley, Eds., Marcel Dekker, New York, N.Y., 1993). The full set of sensory parameters that are assessed in the sensory testing method are: (a) Sweetness Intensity (which can be abbreviated in tables herein as “S”); (b) Sourness Intensity ((which can be abbreviated in tables herein as “So”); (c) Saltiness Intensity (which can be abbreviated in tables herein as “Sa”); (d) Bitterness Intensity (which can be abbreviated in tables herein as “B”); (e) Body/Mouthfeel Intensity (which can be abbreviated in tables herein as “B/MF”); (f) Astringency Intensity (which can be abbreviated in tables herein as “A”); (g) Sweetness Linger (which can be abbreviated in tables herein as “SL”); (h) Sweetness Appearance Time (which can be abbreviated in tables herein as “AT”); and (i) Sweetness Desensitization (which can be abbreviated in tables herein as “SD”). […]"}}, "note": "Peptide text beside a SMILES is read from it.", "data": [{"compound": "Rebaudioside B", "values": [{"measurement": "sweetness potency (sensory evaluations)", "setting": "[1]", "result": "300-350 times"}]}, {"compound": "OC[C@H]1O[C@@](CO)(O[C@H]2O[C@H](CO)[C@@H](O)[C@H](O)[C@H]2O)[C@@H](O)[C@@H]1O", "note": "[Sucrose, reference compound]", "values": [{"measurement": "C/R Function", "setting": "[2]; R in Sucrose Equivalents of Sweetness, C in % (w/v) for sugars, in mg/L for HP sweeteners", "result": "R = C"}]}, {"compound": "[Ca+2].[Cl-].[Cl-]", "note": "[Ca^2+, Calcium Chloride]", "values": [{"measurement": "effect on the AT, SL, B/MF and SD of REBA", "setting": "human taste testers [3]", "result": "did not significantly affect"}, {"measurement": "effect on the AT, SL, B/MF and SD of REBA", "setting": "human taste testers [4]", "result": "modestly affected"}, {"measurement": "effect on the AT, SL, B/MF and SD of REBA", "setting": "human taste testers [5]", "result": "do affect"}]}, {"compound": "C=C1C[C@@]23CC[C@H]4[C@@](C)(CCC[C@@]4(C)C(=O)O[C@@H]4O[C@H](CO)[C@@H](O)[C@H](O)[C@H]4O[C@@H]4O[C@H](CO)[C@@H](O)[C@H](O)[C@H]4O)[C@@H]2CC[C@]1(O[C@@H]1O[C@H](CO)[C@@H](O)[C@H](O[C@@H]2O[C@H](CO)[C@@H](O)[C@H](O)[C@H]2O)[C@H]1O[C@@H]1O[C@H](CO)[C@@H](O)[C@H](O)[C@H]1O)C3", "note": "[Rebaudioside D]", "values": [{"measurement": "appearance of solution", "setting": "[6]", "result": "still cloudy"}]}, {"compound": "Rebaudioside C", "values": [{"measurement": "sweetness potency", "setting": "[1]", "result": "40-60 times"}]}, {"compound": "C[C@H](CC[C@@H](O[C@@H]1O[C@H](CO[C@@H]2O[C@H](CO)[C@@H](O)[C@H](O)[C@H]2O)[C@@H](O)[C@H](O)[C@H]1O[C@@H]1O[C@H](CO)[C@@H](O)[C@H](O)[C@H]1O)C(C)(C)O)[C@H]1CC[C@@]2(C)[C@@H]3CC=C4[C@@H](CC[C@H](O[C@@H]5O[C@H](CO[C@@H]6O[C@H](CO)[C@@H](O)[C@H](O)[C@H]6O)[C@@H](O)[C@H](O)[C@H]5O)C4(C)C)[C@]3(C)[C@H](O)C[C@]12C", "note": "[mogroside V, mogro-3-O-[β-D-glucopyranosyl (1-6)-β-D-glucopyranoside]-24-O-{[β-D-glucopyranosyl(1-2)]-[?-D-glucopyranosyl(1-6)]-β-D-gluco-pyranoside}]", "values": [{"measurement": "sweetness", "setting": "[1]; times cane sugar on a weight basis, estimated", "result": "approximately 250 times"}]}, {"compound": "C=C1C[C@@]23CC[C@H]4[C@@](C)(CCC[C@@]4(C)C(=O)O[C@@H]4O[C@H](CO)[C@@H](O)[C@H](O)[C@H]4O)[C@@H]2CC[C@]1(O[C@@H]1O[C@H](CO)[C@@H](O)[C@H](O)[C@H]1O[C@@H]1O[C@@H](C)[C@H](O)[C@@H](O)[C@H]1O)C3", "note": "[Dulcoside A]", "values": [{"measurement": "sweetness potency", "setting": "[1]", "result": 30, "unit": "times"}]}, {"compound": "CC1=CC(=O)[N-]S(=O)(=O)O1.[K+]", "note": "[Acesulfame-K]", "values": [{"measurement": "Kd, apparent Sweetener/Receptor dissociation constant", "setting": "[2]", "result": 470, "unit": "µg/mL"}, {"measurement": "Rm, Maximal Response", "setting": "[2]", "result": "11.6 Sucrose Equivalents of Sweetness"}]}, {"compound": "C=C1C[C@@]23CC[C@H]4[C@@](C)(CCC[C@@]4(C)C(=O)O[C@@H]4O[C@H](CO)[C@@H](O)[C@H](O)[C@H]4O)[C@@H]2CC[C@]1(O[C@@H]1O[C@H](CO)[C@@H](O)[C@H](O[C@@H]2O[C@H](CO)[C@@H](O)[C@H](O)[C@H]2O)[C@H]1O[C@@H]1O[C@H](CO)[C@@H](O)[C@H](O)[C@H]1O)C3", "note": "[Rebaudioside A]", "values": [{"measurement": "sweetness intensity equivalent", "setting": "[7]; 500 mg/L REBA, from C/R function R=10.0C/(200+C)", "result": 7.14, "unit": "% sucrose"}, {"measurement": "requisite concentration (C) equivalent to 5.0% sucrose in sweetness", "setting": "[7]; calculated from C/R function R=10C/(200+C)", "result": 200, "unit": "mg/L"}, {"measurement": "SL (Sweetness Linger)", "setting": "human taste testers [8]", "result": 5}, {"measurement": "sweetness potency (sensory evaluations)", "setting": "[1]", "result": "350-450 times"}, {"measurement": "Kd, apparent Sweetener/Receptor dissociation constant", "setting": "[2]", "result": 200, "unit": "µg/mL"}, {"measurement": "Rm, Maximal Response", "setting": "[2]", "result": "10 Sucrose Equivalents of Sweetness"}]}, {"compound": "[Cl-].[K+]", "note": "[K^+, Potassium Chloride]", "values": [{"measurement": "effect on the AT, SL, B/MF and SD of REBA", "setting": "human taste testers [3]", "result": "did not significantly affect"}, {"measurement": "effect on the AT, SL, B/MF and SD of REBA", "setting": "human taste testers [4]", "result": "modestly affected"}, {"measurement": "effect on the AT, SL, B/MF and SD of REBA", "setting": "human taste testers [5]", "result": "do affect"}]}, {"compound": "[Cl-].[Cl-].[Mg+2]", "note": "[Mg^2+, Magnesium Chloride]", "values": [{"measurement": "effect on the AT, SL, B/MF and SD of REBA", "setting": "human taste testers [3]", "result": "did not significantly affect"}, {"measurement": "effect on the AT, SL, B/MF and SD of REBA", "setting": "human taste testers [4]", "result": "modestly affected"}, {"measurement": "effect on the AT, SL, B/MF and SD of REBA", "setting": "human taste testers [5]", "result": "do affect"}]}, {"compound": "C=C1C[C@@]23CC[C@H]4[C@@](C)(CCC[C@@]4(C)C(=O)O[C@@H]4O[C@H](CO)[C@@H](O)[C@H](O)[C@H]4O)[C@@H]2CC[C@]1(O[C@@H]1O[C@H](CO)[C@@H](O)[C@H](O)[C@H]1O[C@@H]1O[C@H](CO)[C@@H](O)[C@H](O)[C@H]1O)C3", "note": "[Stevioside]", "values": [{"measurement": "sweetness potency", "setting": "[1]", "result": "110-270 times"}]}, {"compound": "COC(=O)[C@H](Cc1ccccc1)NC(=O)[C@@H](N)CC(=O)O", "note": "[Aspartame] (H-Asp-Phe-OMe)", "values": [{"measurement": "Kd, apparent Sweetener/Receptor dissociation constant", "setting": "[2]", "result": 560, "unit": "µg/mL"}, {"measurement": "Rm, Maximal Response", "setting": "[2]", "result": "16.0 Sucrose Equivalents of Sweetness"}]}]}
